Laboratory results: patent US5574161A, “7-(aminomethyl-oxa-7-aza-bicyclo[3.3.0]oct-7-yl)quinolonecarboxylic and 7-(aminomethyl-oxa-7-aza-bicyclo[3.3.0]oct-7-yl naphthyridonecarboxylic acid derivatives” (Bayer Aktiengesellschaft, priority 1992, dated 1996)

Key:
Assay type in all cases: cell-based
Morganella morganii 932 = assay: MIC, agar serial dilution, Morganella morganii 932; details: Iso-Sensitest agar, 37° C., about 20 hours
Experimental: (§1) The minimum inhibitory concentrations (MIC) were determined by means of serial dilution methods on Iso-Sensitest agar (Oxoid). For each substance to be tested, a series of agar plates was prepared which contained concentrations of the active compound which in each case decreased by a doubling dilution. The agar plates were inoculated with a Multipoint inoculator (Denley). For the inoculation, overnight cultures of the pathogens were used which had previously been diluted so that each inoculation spot contained about 10^4 colony-forming particles. The inoculated agar plates were incubated at 37° C. and the organism growth was recorded after about 20 hours. The MIC value (μg/ml) indicates the lowest concentration of active compound at which no growth was detected with the naked eye.
(§2) In the table below, the MIC values of some of the compounds according to the invention are listed in comparison with 1-cyclopropyl-6,8-difluoro-1,4-dihydro-7-(cis-2-oxa-5,8-diazabicyclo[4.3.0]non-8-yl)-4-oxo-3-quinoline-carboxylic acid hydrochloride (reference example A) and 8-chloro-1-cyclopropyl-6-fluoro-1,4-dihydro-7-(cis-2-oxa-5,8-diazabicyclo[4.3.0]non-8-yl)-4-oxo-3-quinoline-carboxylic acid hydrochloride (reference example B).

[1] = system: Klebsiella pneumoniae 8085; assay: MIC, agar serial dilution, Klebsiella pneumoniae 8085; details: Iso-Sensitest agar, 37° C., about 20 hours
Experimental: as §1, §2

Micrococcus luteus 9341 = assay: MIC, agar serial dilution, Micrococcus luteus 9341; details: Iso-Sensitest agar, 37° C., about 20 hours
Experimental: as §1, §2

[2] = system: Staphylococcus aureus ICB 25701; assay: MIC, agar serial dilution, Staphylococcus aureus ICB 25701; details: ICB25701, Iso-Sensitest agar, 37° C., about 20 hours
Experimental: as §1, §2

[3] = system: Staphylococcus aureus 133; assay: MIC, agar serial dilution, Staphylococcus aureus 133; details: Iso-Sensitest agar, 37° C., about 20 hours
Experimental: as §1, §2

[4] = system: Enterobacter cloacae 2427; assay: MIC, agar serial dilution, Enterobacter cloacae 2427; details: Iso-Sensitest agar, 37° C., about 20 hours
Experimental: as §1, §2

[5] = system: Staphylococcus aureus 1756; assay: MIC, agar serial dilution, Staphylococcus aureus 1756; details: Iso-Sensitest agar, 37° C., about 20 hours
Experimental: as §1, §2

[6] = system: Enterobacter aerog. ICB 5240; assay: MIC, agar serial dilution, Enterobacter aerog. ICB 5240; details: Iso-Sensitest agar, 37° C., about 20 hours
Experimental: as §1, §2

[7] = system: Enterococcus faecalis 9790; assay: MIC, agar serial dilution, Enterococcus faecalis 9790; details: Iso-Sensitest agar, 37° C., about 20 hours
Experimental: as §1, §2

Escherichia coli 455/7 = assay: MIC, agar serial dilution, Escherichia coli 455/7; details: Iso-Sensitest agar, 37° C., about 20 hours
Experimental: as §1, §2

[8] = system: Enterococcus faecalis 27101; assay: MIC, agar serial dilution, Enterococcus faecalis 27101; details: Iso-Sensitest agar, 37° C., about 20 hours
Experimental: as §1, §2

Providencia sp. 12012 = assay: MIC, agar serial dilution, Providencia sp. 12012; details: Iso-Sensitest agar, 37° C., about 20 hours
Experimental: as §1, §2

[9] = system: Pseudomonas aeruginosa ICB 308029; assay: MIC, agar serial dilution, Pseudomonas aeruginosa ICB 308029; details: ICB308029, Iso-Sensitest agar, 37° C., about 20 hours
Experimental: as §1, §2

| SMILES | MIC (Morganella morganii 932) [µg/mL] | MIC [1] [µg/mL] | MIC (Micrococcus luteus 9341) [µg/mL] | MIC [2] [µg/mL] | MIC [3] [µg/mL] | MIC [4] [µg/mL] | MIC [5] [µg/mL] | MIC [6] [µg/mL] | MIC [7] [µg/mL] | MIC (Escherichia coli 455/7) [µg/mL] | MIC [8] [µg/mL] | MIC (Providencia sp. 12012) [µg/mL] | MIC [9] [µg/mL] |
| --- | --- | --- | --- | --- | --- | --- | --- | --- | --- | --- | --- | --- | --- |
| Cl.O=C(O)c1cn(C2CC2)c2c(F)c(N3C[C@@H]4NCCO[C@@H]4C3)c(F)cc2c1=O (relative stereo) [A, 1-cyclopropyl-6,8-difluoro-1,4-dihydro-7-(cis-2-oxa-5,8-diazabicyclo[4.3.0]non-8-yl)-4-oxo-3-quinoline-carboxylic acid hydrochloride] | 0.125 | 0.06 | 0.5 | 2 | 0.06 | 0.125 | 0.06 | 32 | 0.25 | 4 | 0.25 | 0.125 | 64 |
| Cl.O=C(O)c1cn(C2CC2)c2c(Cl)c(N3C[C@@H]4NCCO[C@@H]4C3)c(F)cc2c1=O (relative stereo) [B, 8-chloro-1-cyclopropyl-6-fluoro-1,4-dihydro-7-(cis-2-oxa-5,8-diazabicyclo[4.3.0]non-8-yl)-4-oxo-3-quinoline-carboxylic acid hydrochloride] | 0.06 | 0.06 | 0.25 | 0.5 | 0.03 | 0.25 | 0.015 | 16 | 0.125 | 2 | 0.125 | 0.06 | 64 |
| Cl.NCC12CN(c3c(F)cc4c(=O)c(C(=O)O)cn(C5CC5)c4c3F)CC1CCO2 (stereo not shown) [Example 1B, 7-(1-aminomethyl-2-oxa-7-aza-bicyclo[3.3.0]oct-7-yl) -1-cyclopropyl-6,8-difluoro-1,4-dihydro-4-oxo-3-quinolinecarboxylic acid hydrochloride] | 0.03 | 0.06 | 0.25 | 1 | 0.06 | 0.06 | ≤ 0.015 | 8 | 0.125 | 2 | 0.06 | 0.06 | 16 |
| NCC12CN(c3c(F)cc4c(=O)c(C(=O)O)cn(C5CC5)c4c3Cl)CC1CCO2.O=C(O)C(F)(F)F (stereo not shown) [Example 2B, 7-(1-aminomethyl-2-oxa-7-aza-bicyclo[3.3.0]oct-7-yl)-8-chloro-1-cyclopropyl-6-fluoro-1,4-dihydro-4-oxo-3-quinolinecarboxylic acid trifluoroacetate] | 0.03 | 0.03 | 0.125 | 0.25 | 0.015 | 0.06 | 0.0039 | 8 | 0.06 | 1 | 0.03 | 0.03 | 32 |
